From article PMC8232238 (Cells, 2021)

Legend:
[1] = target: T1, HDAC8 (Homo sapiens, UniProt Q9BY41); test: HDAC8 enzyme inhibition assay (single point and 10-dose IC50, Reaction Biology); format: biochemical
T1 construct: purchased Reaction Biology corporation (contract assay)
T1 sequence (Q9BY41 1-377): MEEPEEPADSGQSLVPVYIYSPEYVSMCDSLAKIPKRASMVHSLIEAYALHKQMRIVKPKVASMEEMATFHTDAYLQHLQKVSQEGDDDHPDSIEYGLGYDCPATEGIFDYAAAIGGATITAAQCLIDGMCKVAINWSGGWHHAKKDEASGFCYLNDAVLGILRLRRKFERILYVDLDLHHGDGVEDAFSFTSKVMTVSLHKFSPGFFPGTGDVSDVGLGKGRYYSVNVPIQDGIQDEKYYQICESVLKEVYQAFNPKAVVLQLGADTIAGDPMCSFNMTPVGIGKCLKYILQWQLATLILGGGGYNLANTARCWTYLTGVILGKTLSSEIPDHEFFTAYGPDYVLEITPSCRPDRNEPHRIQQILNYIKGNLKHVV
Method: Against HDAC6, inhibition was determined using 0.01 µM of the inhibitor.
(§1) All IC50 measurements we performed by Reaction Biology corporation. Compounds were tested in
(§2) dilution starting at 1 uM. […]
(§3) (RHK(Ac)K(Ac)AMC). IC50 values were calculated using the GraphPad Prism 4 program based on a
(§4) sigmoidal dose-response equation. […]

[2] = test system: acetylated tubulin in A549 cells; test: Tubulin acetylation in A549 cells, immunostaining with high content imaging; format: cell-based, human; conditions: 24 h
Method: To confirm the observed activities of the selected test compounds against HDAC6, the acetylation status of tubulin in the human lung cancer cell line A549 was investigated by immunostaining combined with automated high content image analysis (see supplementary material for full details). […] The apparent drop in histone acetylation by both compounds above 10 μM is indicative of a potential cytotoxicity at higher concentrations (data not shown).
Figure 5 Cell-based assessment of HDAC activity and selectivity. Dose and time-dependency of tubulin and histone acetylation by test compounds. A549 cells were treated with (A,B) different concentrations (0–50 µM) of CF011, KNH019 and tubastatin for 24 h or with (C,D) 1 µM over different time intervals before (A,C) tubulin acetylation or (B,D) histone acetylation were automatically quantified using high content imaging. Data represent the average of four independent experiments with four replicate wells/experiments. The statistical significances of effects compared to the untreated control were analysed using Brown–Forsythe and Welch one-way ANOVA analyses using Graph Pad Prism. The significance was set as * 0.05 > p ≥ 0.01, ** 0.01 > p ≥ 0.002. Error bars represent the Standard Error of Mean (SEM). (E) Representative fluorescence images show tubulin acetylation (yellow), histone acetylation (red) and nuclear counterstain (DAPI, blue) after 24 h of exposure to test compounds. Secondary antibodies were detected using excitation/emission filters for CY3 (excitation: 542/27 nm, emission: 597/45 nm), CY5 (excitation: 632/22 nm, emission: 684/25 nm) and DAPI (excitation: 390/18 nm, emission: 435/48 nm), respectively. […]
S2.2 Cell Culture, Treatment and Immunostaining:
A549 cells (ATCC® CCL-185™, In Vitro Technologies Pty. Ltd., Victoria, Australia) were cultured in low glucose Dulbecco’s Modified Eagle Media (DMEM, 1 g/L glucose, 0.584 g/L L-glutamine, 3.7 g/L sodium bicarbonate, 10 % fetal bovine serum) under standard conditions (> 90 % humidity, 37 °C temperature, 5 % CO 2). For experiments, 5,000 cells/ well were seeded in 100 µl serum free DMEM in 384 well plates (µCLEAR®, Greiner) and left to adhere for 24 hours before the treatment. Cells were treated with 100 µl of test compound -containing media for up to 24 hours before cells were fixed with 4 % paraformaldehyde (PFA) solution in PBS (10 minutes at room temperature (RT)) and permeabi lized with 50 µl of 0.5 % Triton X -100 in PBS. Subsequently, cells were blocked in PBST (5% fetal bovine serum, 5% bovine serum albumin, 5% goat serum, 0.1% Tween 20 in PBS) before stained with anti - acetylated tubulin (T7451, Sigma Aldrich; 1:1,000) and an ti-acetylated histone antibody (ab47915, Abcam; 1:1,000) overnight at 4 °C. Subsequently, cells were exposed to secondary antibodies (goat anti-mouse Alexa fluor 594 (Invitrogen; 1:10,000) and goat anti -rabbit Alexa fluor 647 (Invitrogen; 1:10,000) in PBST ) and DAPI solution (Invitrogen; 1:10,000 in PBST) before images were acquired.
Fluorescence images were acquired (10x magnification, 2 -D format) using the InCell 2200 high content imaging system (V7.3, GE Healthcare life sciences) wi th CY3 (excitation: 542/27 nm, emission: 597/45 nm), CY5 (excitation: 632/22 nm, emission: 684/25 nm) and DAPI (excitation: 390/18 nm, emission:
435/48 nm) filters. Two images/well at predefined positions were automatically acquired with 4 replicate wells for each treatment condition/ experiment. At least 3 independent experiments were conducted for each condition. Acquired images were automatically processed using InCarta software (v1.6, GE Healthcare life sciences). All images were manually checked for ar tefacts. Images with less than 30 cells were excluded from the analysis. Excel and GraphPad Prism was used for statistical analysis and graphical representation. Data was expressed as % Relative Fluorescence Units (RFU) […]

[3] = UV/Vis absorption and fluorescence (photophysical properties) in DMSO; format: physicochemical
Method: S1.6 UV/Vis and Fluorescence Data
UV/Vis analysis was performed on a Cary Eclipse 300 UV/Vis spectrophotometer and fluorescence measurements performed on a Cary Eclipse Fluorescence spectrophotometer. All analysis was performed in 10 mm quartz cuvettes using AR grade DMSO. Relative quantum yields were obtained by comparison to quinine sulfate (фf = 0.58 in 0.1 M H2SO4) with absorbance of samples adjusted so that the absorbance at 340 nm was similar to the reference.
Emission spectra were obtained by excitation at 340 nm. Quantum yield was obtained by use of the following equation and are reported as the average of two samples with error <5%; […]
Where фref is the literature quantum yield of the reference, η is the refractive index of the solvent (H2O = 1.333, DMSO = 1.479) and Is is the integrated fluorescence intensity of the sample with Iref being the same of the reference.
Table S1 – Photophysical properties of selected compounds in DMSO […]
†Average of two samples, ±1%

[4] = target: T2, HDAC3 (Homo sapiens, UniProt O15379); test: HDAC3 enzyme inhibition assay (single point and 10-dose IC50, Reaction Biology); format: biochemical
T2 construct: purchased Reaction Biology corporation (contract assay)
T2 sequence (O15379 whole entry): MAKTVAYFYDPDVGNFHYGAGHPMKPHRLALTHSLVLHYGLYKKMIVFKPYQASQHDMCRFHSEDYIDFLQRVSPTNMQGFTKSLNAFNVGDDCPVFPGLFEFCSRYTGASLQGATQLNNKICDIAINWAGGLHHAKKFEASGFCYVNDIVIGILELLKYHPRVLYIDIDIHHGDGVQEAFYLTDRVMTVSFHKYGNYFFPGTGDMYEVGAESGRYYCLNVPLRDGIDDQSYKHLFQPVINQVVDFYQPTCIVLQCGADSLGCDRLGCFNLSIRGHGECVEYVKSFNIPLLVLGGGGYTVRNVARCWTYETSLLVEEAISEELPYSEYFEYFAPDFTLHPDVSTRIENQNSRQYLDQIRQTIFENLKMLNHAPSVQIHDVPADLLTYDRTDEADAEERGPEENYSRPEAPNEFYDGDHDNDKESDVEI
T2 sequence (Q9Y618 395-489 partner limits assumed): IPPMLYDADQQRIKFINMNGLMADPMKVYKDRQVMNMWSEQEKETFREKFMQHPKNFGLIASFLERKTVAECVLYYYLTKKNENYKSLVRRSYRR
Method: as §1, §2, §3, §4

[5] = average of two independent measurements
[6] = single point, inhibitor 1.0 μM, average of two measurements, ±2%

- IC50 [1, 5]: 2.95 ± 0.46 µM
- Selectivity factor (SF) HDAC8 against HDAC6 ([1]; selectivity for HDAC6 over HDAC8): 2950
- HDAC8 average enzyme isoform activity (percentage of full enzyme activity) [1, 6]: 69.3%
- λabs (absorption maximum) [3]: 343 nm
- λabs (secondary absorption maximum) [3]: 374 nm
- λem ([3]; excitation at 340 nm): 437 nm
- Φf (fluorescence quantum yield) ([3]; relative to quinine sulfate, average of two samples): 0.05
- IC50 [4, 5]: 0.064 ± 0.0002 µM
- Selectivity factor (SF) HDAC3 against HDAC6 ([4]; selectivity for HDAC6 over HDAC3): 64
- HDAC3 average enzyme isoform activity (percentage of full enzyme activity) [4, 6]: 24.1%
SMILES: O=C(CCCCCN1C(=O)c2cccc3cc(NC(=O)c4ccccc4)cc(c23)C1=O)NO [KNH019]
- Increase of tubulin acetylation compared to untreated cells (up to) ([2]; 0-50 µM, dose-dependent): ~1.5 fold
- Tubulin acetylation in representative immunostaining images ([2]; 10 µM): strongly induce
- Concentration from which tubulin acetylation was significantly increased ([2]; compared to untreated cells): 10^−6 mM
